Source: US20180311342A1, “IMMUNOSTIMULATING AGENT” (AJINOMOTO CO., INC., priority 2017, published 2018)

Legend:
[1] = test system: anti-OVA-specific IgG1 subclass antibody; assay: Adjuvant activity test: anti-OVA-specific IgG1 subclass antibody in serum of OVA-immunized mice (ELISA); assay type: in vivo, BALB/c mice; conditions: after secondary immunization, serum 2 weeks later; OVA 5 μg + compound 0.256 μmol in 5% αCD-added saline (Addavax mixed with saline at 1:1), dorsal-subcutaneous; compared to OVA single administration group
Description: (§1) 8-Week-old female BALB/c mice were divided into groups (N=6), and each group was primarily immunized by dorsal-subcutaneous administration of (1) ovalbumin (OVA) (5 μg) dissolved in saline as an antigen (OVA single administration group), (2) OVA 5 μg and Addavax™ (mixed with saline at 1:1) dissolved in saline (Addavax™ administration group) as positive control adjuvant, (3) OVA 5 μg and SZ137 0.256 μmol dissolved or dispersed in 5% α-cyclodextrin (hereinafter to be simply referred to as αCD)-added saline (SZ137 administration group), (4) OVA (5 μg) and SZ138 (0.256 μmol) dissolved or dispersed in 5% αCD-added saline (SZ138 administration group), (5) OVA (5 μg) and SZ142 (0.256 μmol) dissolved or dispersed in 5% αCD-added saline (SZ142 administration group), (6) OVA (5 μg) and SZ144 (0.256 μmol) dissolved or dispersed in 5% αCD-added saline (SZ144 administration group), (7) OVA (5 μg) and SZ145 (0.256 μmol) dissolved or dispersed in 5% αCD-added saline (SZ145 administration group), (8) OVA (5 μg) and SZ146 (0.256 μmol) dissolved or dispersed in 5% αCD-added saline (SZ146 administration group), (9) OVA (5 μg) and SZ147 (0.256 μmol) dissolved or dispersed in 5% αCD-added saline (SZ147 administration group), (10) OVA (5 μg) and SZ148 (0.256 μmol) dissolved or dispersed in 5% αCD-added saline (SZ148 administration group), each per mouse. Two week later, the secondary immunization was carried out by dorsal-subcutaneous administration of solutions or dispersions similar to those of the above-mentioned (1)-(10) again. Two weeks from the secondary immunization, the whole blood was extracted under anesthesia, and the obtained serum sample was measured for anti-OVA-specific IgG1 subclass antibody, anti-OVA-specific IgG2a subclass antibody, and anti-OVA-specific IgE antibody.
(§2) The measurement method of the anti-OVA-specific IgG1 subclass antibody and anti-OVA-specific IgG2a subclass antibody in Experimental Example 1 and the following Experimental Examples 2-10 is as follows.
(§3) To a 96 well plate was added 5 μg/ml OVA at 100 µl/well, and the mixture was incubated at 4° C. overnight. After incubation, the mixture was washed three times with 200 μl of PBS-T (PBS (phosphate buffered saline)+0.05% (v/v) Tween 20) per well, and blocked with 100 μl of 5% FCS (fetal calf serum)/PBS solution per well at room temperature for 1-2 hr. Thereafter, the mixture was washed three times with PBS-T (200 μl/well), a diluted serum sample (100 l/well) or the same amount of 5% FCS/PBS solution as a control was added, and the mixture was incubated at 37° C. for 1 hr. To calculate concentration of the antibody, the standard of an anti-OVA-specific IgG1 subclass antibody diluted with 2% FCS/PBS solution was added at 100 ng/ml, 50 ng/ml, 25 ng/ml, 12.5 ng/ml, 6.25 ng/ml, 3.125 ng/ml, 1.56 ng/ml, 0.781 ng/ml, 0.391 ng/ml, 0.195 ng/ml, 0.098 ng/ml, 0 ng/ml, per 1 well. When an anti-OVA-specific IgG2a subclass antibody was measured, the standard of an anti-OVA-specific IgG2a subclass antibody was added at 50 ng/ml, 25 ng/ml, 12.5 ng/ml, 6.25 ng/ml, 3.125 ng/ml, 1.56 ng/ml, 0.781 ng/ml, 0.391 ng/ml, 0.195 ng/ml, 0.098 ng/ml, 0.049 ng/ml, 0 ng/ml, per 1 well. Thereafter, similar to the samples, the mixture was washed five times with PBS-T (200 μl/well), a diluted biotinylated anti-mouse IgG1 antibody and IgG2a antibody were added (100 μl/well), and the mixture was incubated at 37° C. for 45 min. Thereafter, the mixture was washed five times with PBS-T (200 μl/well), a diluted anti-biotin-HRP antibody was added (100 μl/well), and the mixture was incubated at 37° C. for another 30 min. Thereafter, the mixture was washed five times with PBS-T (200 μl/well), TMB substrate solution was added (100 μl/well), and the mixture was incubated at room temperature for 10-15 min. Thereafter, a reaction quenching liquid (2N sulfuric acid solution) was added (50 l/well) to discontinue a color developing reaction, and the absorbance (OD Value=450 nm) was measured by a microplate reader. […]

[2] = test system: anti-OVA-specific IgG2a subclass antibody; assay: Adjuvant activity test: anti-OVA-specific IgG2a subclass antibody in serum of OVA-immunized mice (ELISA); assay type: in vivo, BALB/c mice; conditions: after secondary immunization, serum 2 weeks later; OVA 5 μg + compound 0.256 μmol in 5% αCD-added saline (Addavax mixed with saline at 1:1), dorsal-subcutaneous; compared to OVA single administration group
Description: as §1, §2, §3

Row | Structure (SMILES) | anti-OVA-specific IgG1 subclass antibody production [1] | anti-OVA-specific IgG2a subclass antibody production [2]
1 | CCCCCCCCCCCCCCCCCCCCCC(=O)N[C@@H](CC(C)C)C(=O)NCCCCCCCCCCC [SZ142, N-[(1S)-3-methyl-1-(undecylcarbamoyl)butyl]docosanamide] | showed a tendency to increase | showed a tendency to increase
2 | CCCCCCCCCCCCCCCCCC(=O)N[C@@H](CC(C)C)C(=O)NCCCCCCCC [SZ196, N-[(1S)-3-methyl-1-(octylcarbamoyl)butyl]octadecanamide] | significant enhancement | tended to increase
3 | CCCCCCCCCCCCCCCCCC(=O)N[C@@H](CC(C)C)C(=O)NCCCCCCCCCCCC [SZ195, N-[(1S)-1-(dodecylcarbamoyl)-3-methyl-butyl]octadecanamide] | tended to increase | tended to increase
4 | CCCCCCCCCCCCNC(=O)[C@H](CCCNC(=N)N)NC(=O)OCCCCCCCCCCCC.Cl [SZ187, dodecyl N-[(1S)-1-(dodecylcarbamoyl)-4-guanidino-butyl]carbamate hydrochloride] | showed a tendency to increase | significant enhancement
5 | CCCCCCCCCCCCCCCCCCCCCC(=O)NCCC(=O)NCCCCCCCCCCCC [SZ147, N-[3-(dodecylamino)-3-oxo-propyl]docosanamide] | showed a tendency to increase | showed a tendency to increase
6 | CCCCCCCCCCCCCCCCCCCCCC(=O)N[C@@H](CCCC)C(=O)NCCCCCCCCCCCC [SZ155, N-[(1S)-1-(dodecylcarbamoyl)pentyl]docosanamide] | showed a tendency to increase | showed a tendency to increase
7 | CCCCCCCCCCCCCCCCCCCCCC(=O)N[C@@H](CCCNC(=N)N)C(=O)NCCCCCCCCCCCC.Cl [SZ138, N-[(1S)-1-(dodecylcarbamoyl)-4-guanidino-butyl]docosanamide hydrochloride] | showed a tendency to increase | showed a tendency to increase
8 | CCCCCCCCCCCCCCCCNC(=O)N[C@H](CCCNC(=N)N)C(=O)NCCCCCCCCCCCC.Cl [SZ193, (2R)—N-dodecyl-5-guanidino-2-(hexadecylcarbamoylamino)pentanamide hydrochloride] | showed a tendency to increase | showed a tendency to increase
9 | CCCCCCCCCCCCCCCC(=O)N[C@@H](CCCNC(=N)N)C(=O)NCCCCCCCC.Cl [SZ181, N-[(1S)-4-guanidino-1-(octylcarbamoyl)butyl]hexadecanamide hydrochloride] | showed a tendency to increase | showed a tendency to increase
10 | CCCCCCCCCCCCCCCCCCCCCC(=O)N[C@@H](CCCCN)C(=O)NCCCCCCCCCCCC.Cl [SZ160, N-[(1S)-5-amino-1-(dodecylcarbamoyl)pentyl]docosanamide hydrochloride] | showed a tendency to increase | showed a tendency to increase
11 | CCCCCCCCCCCCCCCCNC(=O)N[C@@H](CC(C)C)C(=O)NCCCCCCCC [SZ201, (2S)-2-(hexadecylcarbamoylamino)-4-methyl-N-octyl-pentanamide] | tended to increase | tended to increase
12 | CCCCCCCCCCCCCCCCCCCCCC(=O)N[C@@H](CCCNC(=N)N)C(=O)NCCCCCCC.Cl [SZ163, N-[(1S)-4-guanidino-1-(heptylcarbamoyl)butyl]docosanamide hydrochloride] | tended to increase | tended to increase
13 | CCCCCCCCCCCCCCCCCC(=O)N[C@@H](CCCCN)C(=O)NCCCCCCCCCCCC.Cl [SZ185, N-[(1S)-5-amino-1-(dodecylcarbamoyl)pentyl]octadecanamide hydrochloride] | significant enhancement | significant enhancement
14 | CCCCCCCCCCCCCCCCCCCCCC(=O)NC(C)(C)C(=O)NCCCCCCCCCCCC [SZ146, N-[2-(dodecylamino)-1,1-dimethyl-2-oxo-ethyl]docosanamide] | showed a tendency to increase | showed a tendency to increase
15 | CCCCCCCCCCCCCCCCOC(=O)N[C@@H](CCCCN)C(=O)NCCCCCCCCCCCC.Cl [SZ189, hexadecyl N-[(1S)-5-amino-1-(dodecylcarbamoyl)pentyl]carbamate hydrochloride] | significant enhancement | significant enhancement
16 | CCCCCCCCCCCCCCCCCCCCCC(=O)NCC(C)(C)C(=O)NCCCCCCCCCCCC [SZ148, N-[3-(dodecylamino)-2,2-dimethyl-3-oxo-propyl]docosanamide] | showed a tendency to increase | showed a tendency to increase
17 | CCCCCCCCCCCCCCCCNC(=O)NCCCCNC(=N)N.Cl [SZ190, 1-(4-guanidinobutyl)-3-hexadecyl-urea hydrochloride] | showed a tendency to increase | showed a tendency to increase
18 | CCCCCCCCCCCCCCCC(=O)N[C@@H](CCCNC(=N)N)C(=O)NCCCCCCCCCCCC.Cl [SZ111, N-[(1S)-1-(dodecylcarbamoyl)-4-guanidino-butyl]hexadecanamide hydrochloride] | significantly increased | significantly increased
19 | CCCCCCCCCCCCNC(=O)N[C@@H](CCCNC(=N)N)C(=O)NCCCCCCCCCCCC.Cl [SZ212, (2S)—N-dodecyl-2-(dodecylcarbamoylamino)-5-guanidino-pentanamide hydrochloride] | significant enhancement | significant enhancement
20 | CCCCCCCCCCCCCCCCCCCCCC(=O)N[C@@H](CCCNC(=N)N)C(=O)N(CCCCCCC)CCCCCCC.Cl [SZ159, N-[(1S)-1-(diheptylcarbamoyl)-4-guanidino-butyl]docosanamide hydrochloride] | showed a tendency to increase | showed a tendency to increase
21 | CCCCCCCCCCCCCCCCCC(=O)N[C@@H](CCCCN)C(=O)NCCCCCCCC.Cl [SZ184, N-[(1S)-5-amino-1-(octylcarbamoyl)pentyl]octadecanamide hydrochloride] | showed a tendency to increase | showed a tendency to increase
